Laboratory results reported in US20200393473A1, “EZETIMIBE METABOLITE AS A NON-INVASIVE BIOMARKER FOR NON-ALCOHOLIC STEATOHEPATITIS (NASH)” (ARIZONA BOARD OF REGENTS ON BEHALF OF THE UNIVERSITY OF …, priority 2018, published 2020).

Legend:
[1] = normal healthy individuals, 10 mg oral dose of EZE; cited from earlier work
[2] = Disposition of EZE and EZE-Gluc in plasma, bile and urine of control and MCD (NASH) rats, LC-MS/MS; type: in vivo, rat; details: NASH animal model (MCD rats) vs control, oral EZE
Procedure: Ezetimibe was orally administered to control and MCD rats. Blood and bile were collected and EZE and ZE-Guc were measured by LC-MS/MS. […] The solid and open arrows indicate where NASH caused an increase and decrease, respectively, in the amount of compound in the biological fluid indicated.
Ezetimibe was intravenously administered to control and MCD rats. Blood and bile were collected and EZE and EZE-Guc were measured by LC-MS/MS. […] The solid arrows indicate where NASH caused an increase in the amount of compound in the biological fluid indicated.

[3] = EZE-Gluc in plasma and urine in NASH compared with healthy or steatotic livers; type: in vivo; details: NASH vs healthy or steatotic livers
Procedure: Furthermore, the inventive technical features of the present invention contributed to a surprising result. A surprising and unexpected result can occur when patients are administered EZE.

Structure (SMILES)	average peak blood concentration [1] [ng/mL]	biliary elimination [2]	plasma retention [2]	increase in plasma and urine [3] [fold]
O=C1[C@H](CC[C@H](O)c2ccc(F)cc2)[C@@H](c2ccc(O)cc2)N1c1ccc(F)cc1 [EZE, ezetimibe]	4.5			
O=C(O)[C@H]1O[C@@H](Oc2ccc([C@@H]3[C@@H](CC[C@H](O)c4ccc(F)cc4)C(=O)N3c3ccc(F)cc3)cc2)[C@H](O)[C@@H](O)[C@@H]1O [EZE-Gluc, ezetimibe-glucuronide]	92	Decreased Biliary Elimination	Increased Plasma Retention	≤ 100
